Experiments:
HBV = experiment: Anti-HBV activity, HepG2.117 inducible HBV producing cell line (Tet-off), intracellular HBV DNA by realtime PCR; type: cell-based; details: Hepatitis B virus, 72 h; HepG2.117 cells, 3 days of treatment, intracellular HBV DNA; read-out: HepG2 117 EC50
[1] = Cytotoxicity in HepG2 cells, Resazurin viability assay; details: human, HepG2 cells

Compound: Cc1c(C(=O)C(=O)NC2(C(F)(F)F)CCOC2)c(Cl)c(C(=O)Nc2ccc(F)c(C#N)c2)n1C (racemic) [Compound 41, 3-chloro-N-(3-cyano-4-fluoro-phenyl)-1,5-dimethyl-4-[2-oxo-2-[[3-(tri-fluoromethyl)tetrahydrofuran-3-yl]amino]acetyl]pyrrole-2-carboxamide]
- EC50 (HBV): 3 nM
- CC50 at 4 days [1]: > 25000 nM

Compound: C[C@@H](NC(=O)C(=O)c1cc(C(=O)Nc2ccc(F)c(C#N)c2)n(C)c1Br)C(F)(F)F [Compound 25, 5-bromo-N-(3-cyano-4-fluoro-phenyl)-1-methyl-4-[2-oxo-2-[[(1R)-2,2,2-trifluoro-1-methyl-ethyl]amino]acetyl]pyrrole-2-carboxamide]
- EC50 (HBV): > 1000 nM
- CC50 at 4 days [1]: > 25000 nM

Compound: C[C@@H](NC(=O)C(=O)c1cn(C)c(C(=O)Nc2ccc(F)c(C#N)c2)c1Br)C(F)(F)F [Compound 26, 3-bromo-N-(3-cyano-4-fluoro-phenyl)-1-methyl-4-[2-oxo-2-[[(1R)-2,2,2-trifluoro-1-methyl-ethyl]amino]acetyl]pyrrole-2-carboxamide]
- EC50 (HBV): 70 nM
- CC50 at 4 days [1]: > 25000 nM

Compound: C[C@@H](NC(=O)C(=O)c1c(Br)c(C(=O)Nc2ccc(F)c(C#N)c2)n(C)c1Br)C(F)(F)F [Compound 27, 3,5-dibromo-N-(3-cyano-4-fluoro-phenyl)-1-methyl-4-[2-oxo-2-[[(1R)-2,2,2-trifluoro-1-methyl-ethyl]amino]acetyl]pyrrole-2-carboxamide]
- EC50 (HBV): 5 nM
- CC50 at 4 days [1]: > 25000 nM

Compound: C[C@@H](NC(=O)C(=O)c1c(Cl)c(C(=O)Nc2ccc(F)c(C#N)c2)n(C)c1Br)C(F)(F)F [Compound 29, 5-bromo-3-chloro-N-(3-cyano-4-fluoro-phenyl)-1-methyl-4-[2-oxo-2-[[(1R)-2,2,2-trifluoro-1-methyl-ethyl]amino]acetyl]pyrrole-2-carboxamide]
- EC50 (HBV): 14 nM
- CC50 at 4 days [1]: > 25000 nM

Compound: Cn1c(C(=O)Nc2ccc(F)c(C#N)c2)c(Cl)c(C(=O)C(=O)NC(C)(C)C)c1C(F)(F)F [Compound 33, 4-[2-(tert-butylamino)-2-oxo-acetyl]-3-chloro-N-(3-cyano-4-fluoro-phenyl)-1-methyl-5-(trifluoromethyl)pyrrole-2-carboxamide]
- EC50 (HBV): 247 nM
- CC50 at 4 days [1]: > 25000 nM

Compound: Cn1cc(C(=O)C(=O)NC(C)(C)C)c(F)c1C(=O)Nc1ccc(F)c(C#N)c1 [Compound 34, 4-[2-(tert-butylamino)-2-oxo-acetyl]-N-(3-cyano-4-fluoro-phenyl)-3-fluoro-1-methyl-pyrrole-2-carboxamide]
- EC50 (HBV): 9 nM
- CC50 at 4 days [1]: > 25000 nM

Compound: Cn1cc(C(=O)C(=O)NC2(C)CC(F)(F)C2)c(F)c1C(=O)Nc1ccc(F)c(C#N)c1 [Compound 35, N-(3-cyano-4-fluoro-phenyl)-4-[2-[(3,3-difluoro-1-methyl-cyclobutyl)-amino]-2-oxo-acetyl]-3-fluoro-1-methyl-pyrrole-2-carboxamide]
- EC50 (HBV): 4 nM
- CC50 at 4 days [1]: > 25000 nM

Compound: Cc1c(C(=O)C(=O)NC(C)(C)C)c(F)c(C(=O)Nc2ccc(F)c(C#N)c2)n1C [Compound 36, 4-[2-(tert-butylamino)-2-oxo-acetyl]-N-(3-cyano-4-fluoro-phenyl)-3-fluoro-1,5-dimethyl-pyrrole-2-carboxamide]
- EC50 (HBV): < 4 nM
- CC50 at 4 days [1]: > 25000 nM

Compound: Cc1c(C(=O)C(=O)NC2(C)CC(F)(F)C2)c(F)c(C(=O)Nc2ccc(F)c(C#N)c2)n1C [Compound 37, N-(3-cyano-4-fluoro-phenyl)-4-[2-[(3,3-difluoro-1-methyl-cyclobutyl)-amino]-2-oxo-acetyl]-3-fluoro-1,5-dimethyl-pyrrole-2-carboxamide]
- EC50 (HBV): 2 nM
- CC50 at 4 days [1]: > 25000 nM

Compound: CC[C@@H](NC(=O)C(=O)c1cn(C)c(C(=O)Nc2ccc(F)c(C#N)c2)c1Cl)C(F)(F)F [Compound 38, 3-chloro-N-(3-cyano-4-fluoro-phenyl)-1-methyl-4-[2-oxo-2-[[(1R)-1-(trifluoromethyl)propyl]amino]acetyl]pyrrole-2-carboxamide]
- EC50 (HBV): 15 nM
- CC50 at 4 days [1]: > 25000 nM

Compound: Cn1cc(C(=O)C(=O)NC2(C(F)(F)F)CCC2)c(Cl)c1C(=O)Nc1ccc(F)c(C#N)c1 [Compound 39, 3-chloro-N-(3-cyano-4-fluoro-phenyl)-1-methyl-4-[2-oxo-2-[[1-(tri-fluoromethyl)cyclobutyl]amino]acetyl]pyrrole-2-carboxamide]
- EC50 (HBV): 6 nM
- CC50 at 4 days [1]: > 25000 nM

Compound: Cn1cc(C(=O)C(=O)NC2(C)CC(F)(F)C2)c(Cl)c1C(=O)Nc1ccc(F)c(C#N)c1 [Compound 40, 3-chloro-N-(3-cyano-4-fluoro-phenyl)-4-[2-[(3,3-difluoro-1-methyl-cyclobutyl)amino]-2-oxo-acetyl]-1-methyl-pyrrole-2-carboxamide]
- EC50 (HBV): 7 nM
- CC50 at 4 days [1]: > 25000 nM

Compound: CC[C@@H](NC(=O)C(=O)c1c(Cl)c(C(=O)Nc2ccc(F)c(C#N)c2)n(C)c1C)C(F)(F)F [Compound 42, 3-chloro-N-(3-cyano-4-fluoro-phenyl)-1,5-dimethyl-4-[2-oxo-2-[[(1R)-1-(trifluoromethyl)propyl]amino]acetyl]pyrrole-2-carboxamide]
- EC50 (HBV): 2 nM
- CC50 at 4 days [1]: > 25000 nM

Compound: Cc1c(C(=O)C(=O)NC2(C(F)(F)F)CCC2)c(Cl)c(C(=O)Nc2ccc(F)c(C#N)c2)n1C [Compound 43, 3-chloro-N-(3-cyano-4-fluoro-phenyl)-1,5-dimethyl-4-[2-oxo-2-[[1-(tri-fluoromethyl)cyclobutyl]amino]acetyl]pyrrole-2-carboxamide]
- EC50 (HBV): 3 nM
- CC50 at 4 days [1]: > 25000 nM

Compound: Cc1c(C(=O)C(=O)NC2(C)COC2)c(Cl)c(C(=O)Nc2ccc(F)c(C#N)c2)n1C [Compound 44, 3-chloro-N-(3-cyano-4-fluoro-phenyl)-1,5-dimethyl-4-[2-[(3-methyloxetan-3-yl)amino]-2-oxo-acetyl]pyrrole-2-carboxamide]
- EC50 (HBV): 3 nM
- CC50 at 4 days [1]: > 25000 nM

Compound: Cc1c(C(=O)C(=O)NC(C)C)c(Cl)c(C(=O)Nc2ccc(F)c(C#N)c2)n1C [Compound 45, 3-chloro-N-(3-cyano-4-fluoro-phenyl)-4-[2-(isopropylamino)-2-oxo-acetyl]-1,5-dimethyl-pyrrole-2-carboxamide]
- EC50 (HBV): 6 nM
- CC50 at 4 days [1]: > 25000 nM

Compound: Cc1c(C(=O)C(=O)N[C@H](C)C(C)(F)F)c(Cl)c(C(=O)Nc2ccc(F)c(C#N)c2)n1C [Compound 46, 3-chloro-N-(3-cyano-4-fluoro-phenyl)-4-[2-[[(1R)-2,2-difluoro-1-methyl-propyl]amino]-2-oxo-acetyl]-1,5-dimethyl-pyrrole-2-carboxamide]
- EC50 (HBV): 3 nM
- CC50 at 4 days [1]: > 25000 nM

Compound: Cc1c(C(=O)C(=O)NC2(C)CC(F)(F)C2)c(Cl)c(C(=O)Nc2ccc(F)c(C#N)c2)n1C [Compound 47, 3-chloro-N-(3-cyano-4-fluoro-phenyl)-4-[2-[(3,3-difluoro-1-methyl-cyclo-butyl)amino]-2-oxo-acetyl]-1,5-dimethyl-pyrrole-2-carboxamide]
- EC50 (HBV): < 4 nM
- CC50 at 4 days [1]: > 25000 nM

Compound: Cn1c(C(=O)Nc2ccc(F)c(C#N)c2)c(Cl)c(C(=O)C(=O)NC(C)(C)C)c1C1CC1 [Compound 48, 4-[2-(tert-butylamino)-2-oxo-acetyl]-3-chloro-N-(3-cyano-4-fluoro-phenyl)-5-cyclopropyl-1-methyl-pyrrole-2-carboxamide]
- EC50 (HBV): 22 nM
- CC50 at 4 days [1]: > 25000 nM

Compound: Cn1c(C#N)c(C(=O)C(=O)NC(C)(C)C)c(Cl)c1C(=O)Nc1ccc(F)c(C#N)c1 [Compound 49, 4-[2-(tert-butylamino)-2-oxo-acetyl]-3-chloro-5-cyano-N-(3-cyano-4-fluoro-phenyl)-1-methyl-pyrrole-2-carboxamide]
- EC50 (HBV): 34 nM
- CC50 at 4 days [1]: > 25000 nM

Compound: Cn1c(Br)c(C(=O)C(=O)NC(C)(C)C)c(Cl)c1C(=O)Nc1ccc(F)c(C#N)c1 [Compound 50, 5-bromo-4-[2-(tert-butylamino)-2-oxo-acetyl]-3-chloro-N-(3-cyano-4-fluoro-phenyl)-1-methyl-pyrrole-2-carboxamide]
- EC50 (HBV): 4 nM
- CC50 at 4 days [1]: > 25000 nM

Compound: C[C@H](NC(=O)C(=O)c1cc(C(=O)Nc2ccc(F)c(C#N)c2)n(C)c1)C(F)(F)F [Compound 51, N-(3-cyano-4-fluoro-phenyl)-1-methyl-4-[2-oxo-2-[[(1S)-2,2,2-trifluoro-1-methyl-ethyl]amino]acetyl]pyrrole-2-carboxamide]
- EC50 (HBV): 42 nM
- CC50 at 4 days [1]: > 25000 nM

Compound: Cc1c(C(=O)C(=O)NC(C)C)cc(C(=O)Nc2ccc(F)c(C#N)c2)n1C [Compound 52, N-(3-cyano-4-fluoro-phenyl)-4-[2-(isopropylamino)-2-oxo-acetyl]-1,5-dimethyl-pyrrole-2-carboxamide]
- EC50 (HBV): 67 nM
- CC50 at 4 days [1]: > 25000 nM

Compound: CC[C@@H](C)NC(=O)C(=O)c1cc(C(=O)Nc2ccc(F)c(C#N)c2)n(C)c1C [Compound 53, N-(3-cyano-4-fluoro-phenyl)-1,5-dimethyl-4-[2-[[(1R)-1-methylpropyl]-amino]-2-oxo-acetyl]pyrrole-2-carboxamide]
- EC50 (HBV): 39 nM
- CC50 at 4 days [1]: > 25000 nM

Compound: Cc1c(C(=O)C(=O)N[C@H](C)C(C)(F)F)cc(C(=O)Nc2ccc(F)c(C#N)c2)n1C [Compound 54, N-(3-cyano-4-fluoro-phenyl)-4-[2-[[(1R)-2,2-difluoro-1-methyl-propyl]-amino]-2-oxo-acetyl]-1,5-dimethyl-pyrrole-2-carboxamide]
- EC50 (HBV): 10 nM
- CC50 at 4 days [1]: > 25000 nM

Compound: Cc1c(C(=O)C(=O)N[C@@H](C)C(C)(F)F)cc(C(=O)Nc2ccc(F)c(C#N)c2)n1C [Compound 55, N-(3-cyano-4-fluoro-phenyl)-4-[2-[[(1S)-2,2-difluoro-1-methyl-propyl]-amino]-2-oxo-acetyl]-1,5-dimethyl-pyrrole-2-carboxamide]
- EC50 (HBV): 9 nM
- CC50 at 4 days [1]: > 25000 nM

Compound: Cc1c(C(=O)C(=O)NC2(C)CC(F)(F)C2)cc(C(=O)Nc2ccc(F)c(C#N)c2)n1C [Compound 56, N-(3-cyano-4-fluoro-phenyl)-4-[2-[(3,3-difluoro-1-methyl-cyclobutyl)-amino]-2-oxo-acetyl]-1,5-dimethyl-pyrrole-2-carboxamide]
- EC50 (HBV): 5 nM
- CC50 at 4 days [1]: > 25000 nM
